Assay results reported in US10626094B2 (La Jolla Institute of Allergy & Immunology, priority 2014, dated 2020).
Like-named read-outs stand apart in the source and are kept apart here.

Key:
[1] = molecular target: LMPTP-A (Low Molecular Weight Protein Tyrosine Phosphatase-A) enzyme (Homo sapiens (Human), UniProt P24666); experiment: LMPTP primary screening / LMPTP (OMFP) enzyme inhibition assay, fluorescence intensity; format: biochemical
Summary of the method: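 0.625 nM LMPTP-A with 400 μM OMFP substrate in 50 mM Bis-Tris pH 6.0, 1 mM DTT, 0.01% Triton X-100, […]. Compounds at 20 μM final. Incubated 50 min at room temperature in the dark; fluorescence intensity read.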

[2] = hepatic microsomal stability, mouse liver microsomes; format: in vitro ADME; settings: Mouse microsomes, 1 hr
Description: (§1) In the course of this investigation many compounds with similar potencies in the LMPTP (OMFP) assay were found. In order to determine which compound would be the best candidate for in vivo studies, an abbreviated ADME panel was ran on these compounds, a tabulation of the most interesting data on this set of compounds is illustrated in Table 3 below. From the hepatic microsome stability data the candidate selected for in vivo studies was Compound D1.
(§2) The microsomal stability assay is commonly used to rank compounds according to their metabolic stability. This assay addresses the pharmacologic question of how long the parent compound will remain circulating in plasma within the body.

[3] = hepatic microsomal stability, human liver microsomes; format: in vitro ADME; settings: Human microsomes, 1 hr
Description: as §1, §2

[4] = plasma stability, mouse plasma; format: in vitro ADME; settings: Mouse plasma, 3 hrs
Description: (§3) Plasma stability is a measure of the stability of small molecules and peptides in plasma and is an important parameter, which can strongly influence the in vivo efficacy of a test compound. Drug candidates are exposed to enzymatic processes (proteinases. esterases) in plasma, and they can undergo intramolecular rearrangement or bind irreversibly (covalently) to proteins.

[5] = aqueous solubility (buffer pH 5.0-7.4, PBS); format: physicochemical
[6] = tested on: insulin receptor in HepG2 cells; settings: 10 microM compound overnight, insulin 5 min
[7] = plasma stability, human plasma; format: in vitro ADME; settings: Human plasma, 3 hrs
Description: as §3

[8] = LMPTP-A, OMFP substrate, method of Example 2, read-out: IC50
[9] = initial screening hits (Scheme 4), read-out: IC50

Sequence of LMPTP-A (Low Molecular Weight Protein Tyrosine Phosphatase-A) enzyme (P24666 whole entry): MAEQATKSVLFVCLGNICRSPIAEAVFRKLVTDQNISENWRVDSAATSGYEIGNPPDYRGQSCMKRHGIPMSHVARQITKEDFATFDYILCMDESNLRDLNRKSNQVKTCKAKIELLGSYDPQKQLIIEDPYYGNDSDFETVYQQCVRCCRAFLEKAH

| IC50 [1, 8] [µM] | Compound | also measured |
| --- | --- | --- |
| 0.801 to 5 | Fc1cccc(-c2cc(NCCCN3CCCCC3)c3ccccc3n2)c1C(F)(F)F [Compound I223] | – |
| 0.801 to 5 | c1ccc2c(NCCCN3CCCCC3)cc(-c3ccc4scnc4c3)nc2c1 [Compound I224] | – |
| 0.801 to 5 | Fc1ccc(-c2ccc(-c3cc(NCCCN4CCCCC4)c4ccccc4n3)cc2)cc1 [Compound I225] | – |
| 0.801 to 5 | CC(C)CNC(=O)c1ccc(-c2cc(NCCCN3CCCCC3)c3ccccc3n2)cc1 [Compound I226] | – |
| 0.801 to 5 | O=C(NCCO)c1ccc(-c2cc(NCCCN3CCCCC3)c3ccccc3n2)cc1 [Compound I227] | – |
| 0.801 to 5 | CCNC(=O)c1ccc(-c2cc(NCCCN3CCCCC3)c3ccccc3n2)cc1F [Compound I229] | – |
| 0.801 to 5 | O=C(NC1CCCCC1)c1ccc(-c2cc(NCCCN3CCCCC3)c3ccccc3n2)cc1 [Compound I230] | – |
| 0.801 to 5 | CC(=O)Nc1ccc(-c2cc(NCCCN3CCCCC3)c3ccccc3n2)cc1F [Compound I232] | – |
| > 5 | O=S(=O)(c1ccccc1-c1cc(NCCCN2CCCCC2)c2ccccc2n1)N1CCOCC1 [Compound I233] | – |
| 0.2 to 0.8 | O=C(c1ccc(-c2cc(NCCCN3CCCCC3)c3ccccc3n2)cc1)N1CCOCC1 [Compound I234] | – |
| 0.2 to 0.8 | O=S(=O)(c1ccc(-c2cc(NCCCN3CCCCC3)c3ccccc3n2)cc1)N1CCSCC1 [Compound I235, 4-[(4-{4-[(3-piperidylpropyl)amino]-2-quinolyl}phenyl)sulfonyl]-1,4-thiazaperhydroine] | – |
| 0.2 to 0.8 | O=S(=O)(c1ccc(-c2cc(NCCCN3CCCCC3)c3ccccc3n2)cc1)N1CCOCC1 [Compound I236] | – |
| 0.801 to 5 | CCN1CCC(Cc2cccc(Nc3cc(-c4cccc(NC(C)=O)c4)nc4ccccc34)c2)CC1 [Compound I237, N-{3-[4-({3-[(1-ethyl-4-piperidyl)methyl]phenyl}amino)-2-quinolyl]phenyl}acetamide] | – |
| 0.801 to 5 | Fc1c(Cl)cccc1-c1cc(NCCCN2CCCCC2)c2ccccc2n1 [Compound I238] | – |
| > 5 | CCN(CC)S(=O)(=O)c1ccccc1-c1cc(NCCCN2CCCCC2)c2ccccc2n1 [Compound I240] | – |
| > 5 | C1=C(c2cc(NCCCN3CCCCC3)c3ccccc3n2)OCC1 [Compound I241] | – |
| > 5 | CCN(CC)S(=O)(=O)c1ccc(C)c(-c2cc(NCCCN3CCCCC3)c3ccccc3n2)c1 [Compound I242] | – |
| 0.801 to 5 | c1ccc(-c2ccc(-c3cc(NCCCN4CCCCC4)c4ccccc4n3)cc2)cc1 [Compound I243] | – |
| > 5 | CCN(CC)S(=O)(=O)c1cccc(-c2cc(NCCCN3CCCCC3)c3ccccc3n2)c1 [Compound I244] | – |
| > 5 | c1ccc(CSc2cccc(-c3cc(NCCCN4CCCCC4)c4ccccc4n3)c2)cc1 [Compound I245] | – |
| 0.801 to 5 | CCN(CC)S(=O)(=O)c1ccc(-c2cc(NCCCN3CCCCC3)c3ccccc3n2)cc1 [Compound I246] | – |
| 0.2 to 0.8 | c1ccc2c(NCCCN3CCCCC3)cc(-c3ccc4sccc4c3)nc2c1 [Compound I247] | – |
| 0.801 to 5 | Cc1nc2ccc(-c3cc(NCCCN4CCCCC4)c4ccccc4n3)cc2s1 [Compound I248] | – |
| 0.2 to 0.8 | O=C(NC1CCCC1)c1ccc(-c2cc(NCCCN3CCCCC3)c3ccccc3n2)cc1 [Compound I249] | – |
| 0.801 to 5 | CC(=O)Nc1cc(C(=O)O)cc(-c2cc(NCCCN3CCCCC3)c3ccccc3n2)c1 [Compound I250] | – |
| 0.2 to 0.8 | CNC(=O)c1ccc(-c2cc(NCCCN3CCCCC3)c3ccccc3n2)cc1Cl [Compound I251] | – |
| 0.2 to 0.8 | NC(=O)c1ccc(-c2cc(NCCCN3CCCCC3)c3ccccc3n2)c(F)c1 [Compound I252] | – |

| IC50 [1, 8] [µM] | Compound | also measured |
| --- | --- | --- |
| 0.2 to 0.8 | O=C(NCc1ccccc1)c1ccc(-c2cc(NCCCN3CCCCC3)c3ccccc3n2)cc1 [Compound I253] | – |
| 0.2 to 0.8 | CC(=O)NCc1ccc(-c2cc(NCCCN3CCCCC3)c3ccccc3n2)cc1 [Compound I255] | – |
| 0.2 to 0.8 | c1cc2c3c(cc(-c4cc(NCCCN5CCCCC5)c5ccccc5n4)cc3c1)CC2 [Compound I256] | – |
| 0.801 to 5 | O=S(=O)(c1ccccc1)n1ccc2cc(-c3cc(NCCCN4CCCCC4)c4ccccc4n3)ccc21 [Compound I260] | – |
| 0.2 to 0.8 | N#CCCNC(=O)c1ccc(-c2cc(NCCCN3CCCCC3)c3ccccc3n2)cc1 [Compound I265] | – |
| 0.801 to 5 | CCN(C)C(=O)c1ccc(-c2cc(NCCCN3CCCCC3)c3ccccc3n2)cc1 [Compound I266] | – |
| 0.801 to 5 | O=C(NC1CC1)c1ccc(-c2cc(NCCCN3CCCCC3)c3ccccc3n2)cc1 [Compound I271] | – |
| – | Cc1cccc(-c2nc(NCCCN3CCOCC3)c3ccccc3n2)c1 [Entry 1] | IC50 ([1]; Table 1 quinazolinone series, CP sample (cherry pick of DMSO solution from NIH MLSMR), read-out: LMPTP (OMFP) (IC50)): 7.12 µM; IC50 ([1]; Table 1 quinazolinone series, P sample (purchased from commercial sources), read-out: LMPTP (OMFP) (IC50)): 13.5 µM; IC50 [1, 9]: 7.12 µM; IC50 ([1]; read-out: LMPTP (OMFP) IC50): 13.5 µM |
| – | c1ccc(-c2cc(NCCN3CCCCC3)c3ccccc3n2)cc1 [Entry 41] | Hepatic Microsome Stability % Remaining @ 1 hr [2]: 0.38%; Hepatic Microsome Stability % Remaining @ 1 hr [3]: 26.54%; Plasma Stability % Remaining @ 3 hrs [4]: 62.25%; IC50 ([1]; Table 2 quinoline series, CP sample (cherry pick of DMSO solution from NIH MLSMR), read-out: LMPTP (OMFP) (IC50)): 3.49 µM; IC50 ([1]; Table 2 quinoline series, P sample (purchased from commercial sources), read-out: LMPTP (OMFP) (IC50)): 2.86 µM; IC50 ([1]; Table 2 quinoline series, S sample (synthesized de novo), read-out: LMPTP (OMFP) (IC50)): 3.7 µM; IC50 [1, 9]: 3.49 µM; IC50 ([1]; purchased compound, read-out: LMPTP (OMFP) IC50): 2.86 µM; IC50 ([1]; synthesized compound, read-out: LMPTP (OMFP) IC50): 3.7 µM; Aqueous Solubility Pion's buffer ([5]; pH 5.0): 111.8 µg/mL; Aqueous Solubility Pion's buffer ([5]; pH 6.2): 95.7 µg/mL; Aqueous Solubility Pion's buffer ([5]; pH 7.4): 54.5 µg/mL; phosphorylation of the insulin receptor [6]: increases phosphorylation of the insulin receptor; Plasma Stability % Remaining @ 3 hrs [7]: 70.08% |
| – | CSCCCN1CCCCC1 [Entry 64] | LMPTP (OMFP) potency in words ([1]; SAR discussion): inactive |
| 0.801 to 5 | (2-fluoro-4-{4-[(3-piperidylpropyl)amino](2-quinolyl)}phenyl)-N-methylcarboxamide [Compound I228] | – |
| 0.801 to 5 | (2-morpholin-4-ylethyl)(2-phenyl(4-quinolyl))amine [Compound I180] | – |
| 0.801 to 5 | (3-piperidylpropyl)(2-(3-pyridyl)(4-quinolyl))amine [Compound I147] | – |
| 0.801 to 5 | (3-piperidylpropyl)[2-(3,4,5-trifluorophenyl)(4-quinolyl)]amine [Compound I127] | – |
| 0.801 to 5 | N-cyclopropyl(4-{4-[(3-piperidylpropyl)amino](2-quinolyl)}phenyl)carboxamide [Compound I70] | – |
| 0.801 to 5 | N-ethyl-N-methyl(4-{4-[(3-piperidylpropyl)amino](2-quinolyl)}phenyl)carboxamide [Compound I60] | – |
| 0.801 to 5 | [2-(2,4-dichlorophenyl)(4-quinolyl)](3-piperidylpropyl)amine [Compound I103] | – |
| > 5 | [2-(2,6-dichlorophenyl)(4-quinolyl)](3-piperidylpropyl)amine [Compound I100] | – |
| 0.801 to 5 | [2-(3,4-dichlorophenyl)(4-quinolyl)](3-piperidylpropyl)amine [Compound I138] | – |
| 0.801 to 5 | [2-(3,5-dichlorophenyl)(4-quinolyl)](3-piperidylpropyl)amine [Compound I170] | – |
| 0.801 to 5 | [2-(4-methoxyphenyl)(4-5,6,7,8-tetrahydroquinolyl)][4-(piperidylmethyl)phenyl]amine [Compound I207] | – |
| 0.801 to 5 | [2-(5-bromo-2-methoxy(4-pyridyl))(4-quinolyl)](3-piperidylpropyl)amine [Compound I89] | – |
| 0.801 to 5 | [2-(5-bromo-3-chloro-2-fluorophenyl)(4-quinolyl)](3-piperidylpropyl)amine [Compound I239] | – |
| 0.801 to 5 | methyl 3-{4-[(3-piperidylpropyl)amino]-2-quinolyl}benzoate [Compound I155] | – |
| 0.2 to 0.8 | {2-[2,4-bis(trifluoromethyl)phenyl](4-quinolyl)}(3-piperidylpropyl)amine [Compound I168] | – |
| 0.801 to 5 | {2-[3-chloro-2-(phenylmethoxy)(4-pyridyl)](4-quinolyl)}(3-piperidylpropyl)amine [Compound I88] | – |
| 0.801 to 5 | {2-[5-chloro-2-(cyclopropylmethoxy)(3-pyridyl)](4-quinolyl)}(3-piperidylpropyl)amine [Compound I95] | – |

| Compound | IC50 [1, 8] [µM] | also measured |
| --- | --- | --- |
| [2-(3-chloro-2-prop-2-enyloxy(4-pyridyl))(4-quinolyl)](3-piperidylpropyl)amine [Compound I91] | > 5 | – |
